Measurements published in US12371436B2, “Substituted benzodiazoliums as ENaC inhibitors” (ENTERPRISE THERAPEUTICS LIMITED, priority 2016, dated 2025).
Counter-ions that a name gives are not always drawn.

biological target: T1, ENaC (Homo sapiens, UniProt P37088+P51168+P51170); test: Short circuit current assay to determine ENaC blocker potency in human bronchial epithelial cells; type: cell-based; conditions: 50% inhibition of total amiloride-sensitive ISC, apical addition, read-out: Averages.ENaC IC50 (nM) Avg
T1 construct: host or cells: primary human bronchial epithelial cells (HBECs) differentiated at air-liquid interface
T1 sequence (P37088 1-669): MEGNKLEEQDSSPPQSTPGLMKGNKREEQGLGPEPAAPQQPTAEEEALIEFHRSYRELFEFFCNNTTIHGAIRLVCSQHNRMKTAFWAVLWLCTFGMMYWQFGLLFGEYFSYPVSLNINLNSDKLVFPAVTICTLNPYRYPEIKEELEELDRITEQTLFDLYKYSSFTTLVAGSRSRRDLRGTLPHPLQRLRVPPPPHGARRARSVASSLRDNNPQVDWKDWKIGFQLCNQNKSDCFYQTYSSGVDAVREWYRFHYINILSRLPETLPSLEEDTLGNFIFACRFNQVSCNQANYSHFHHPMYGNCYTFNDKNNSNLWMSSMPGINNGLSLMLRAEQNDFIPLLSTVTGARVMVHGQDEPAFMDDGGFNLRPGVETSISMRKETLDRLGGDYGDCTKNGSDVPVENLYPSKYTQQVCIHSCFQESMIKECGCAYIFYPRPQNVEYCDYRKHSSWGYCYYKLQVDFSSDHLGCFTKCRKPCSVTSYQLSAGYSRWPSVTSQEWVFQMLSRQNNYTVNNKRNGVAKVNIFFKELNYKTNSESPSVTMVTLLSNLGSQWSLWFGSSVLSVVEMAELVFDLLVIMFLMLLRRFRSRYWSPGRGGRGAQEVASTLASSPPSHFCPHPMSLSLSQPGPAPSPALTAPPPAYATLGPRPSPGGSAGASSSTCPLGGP
T1 sequence (P51168 1-640): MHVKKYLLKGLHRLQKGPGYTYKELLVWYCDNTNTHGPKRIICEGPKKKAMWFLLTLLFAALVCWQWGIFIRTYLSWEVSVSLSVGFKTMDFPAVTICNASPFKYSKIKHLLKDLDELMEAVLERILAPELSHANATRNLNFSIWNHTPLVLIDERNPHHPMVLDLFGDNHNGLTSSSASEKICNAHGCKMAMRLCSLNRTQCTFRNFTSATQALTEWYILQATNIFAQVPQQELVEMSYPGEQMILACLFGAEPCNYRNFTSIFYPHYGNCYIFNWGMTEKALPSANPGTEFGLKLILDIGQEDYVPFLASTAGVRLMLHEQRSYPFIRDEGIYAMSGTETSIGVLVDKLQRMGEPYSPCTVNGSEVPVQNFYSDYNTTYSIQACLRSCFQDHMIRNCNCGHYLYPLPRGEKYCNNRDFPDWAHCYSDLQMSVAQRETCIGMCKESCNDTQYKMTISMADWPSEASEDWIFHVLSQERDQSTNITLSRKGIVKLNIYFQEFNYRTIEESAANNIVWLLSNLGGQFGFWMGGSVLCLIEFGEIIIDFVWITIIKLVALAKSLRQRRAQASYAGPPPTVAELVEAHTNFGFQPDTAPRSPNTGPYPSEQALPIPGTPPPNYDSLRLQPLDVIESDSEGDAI
T1 sequence (P51170 1-649): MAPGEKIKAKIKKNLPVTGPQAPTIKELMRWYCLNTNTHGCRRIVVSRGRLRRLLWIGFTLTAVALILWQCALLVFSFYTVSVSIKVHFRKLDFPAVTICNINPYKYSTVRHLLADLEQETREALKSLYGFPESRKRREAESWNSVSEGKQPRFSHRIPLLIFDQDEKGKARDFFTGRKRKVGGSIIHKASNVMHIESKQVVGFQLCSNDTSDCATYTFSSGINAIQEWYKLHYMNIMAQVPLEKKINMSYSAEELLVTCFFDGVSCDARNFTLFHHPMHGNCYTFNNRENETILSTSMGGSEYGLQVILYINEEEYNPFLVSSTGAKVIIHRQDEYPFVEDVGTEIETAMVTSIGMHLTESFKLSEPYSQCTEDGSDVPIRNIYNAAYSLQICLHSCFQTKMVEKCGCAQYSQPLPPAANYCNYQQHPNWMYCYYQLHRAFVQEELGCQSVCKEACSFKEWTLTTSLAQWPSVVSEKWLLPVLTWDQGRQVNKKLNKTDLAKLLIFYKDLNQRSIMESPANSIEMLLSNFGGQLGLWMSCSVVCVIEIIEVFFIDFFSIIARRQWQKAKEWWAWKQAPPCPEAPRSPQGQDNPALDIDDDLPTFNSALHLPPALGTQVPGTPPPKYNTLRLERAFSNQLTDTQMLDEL
Method: Example 68—Short circuit current assay to determine ENaC blocker potency in human bronchial epithelial cells
Human bronchial epithelial cells (HBECs) (Lonza, UK) were cultured using a modification of the method described by Coote et al, (2008). Cells were seeded into plastic T-75 flasks and grown in Bronchial Epithelial Cell Growth Medium (BEGM) (Lonza, UK) supplemented with bovine pituitary extract (52 ng/mL), hydrocortisone (0.5 μg/mL), human recombinant Epidermal Growth Factor (0.5 ng/mL), epinephrine (0.5 ng/mL), transferrin (10 ng/mL), insulin (5 ng/mL), retinoic acid (0.1 ng/mL), triiodothyronine (6.5 ng/mL), gentamycin (50 μg/mL) and amphotericin-B (50 ng/mL). Medium was changed every 48 hours until cells were 90% confluent. Cells were then passaged and seeded (8.25×10^5 cells/insert) onto polycarbonate Snapwell™ inserts (Costar, UK) in differentiation media containing 50% DMEM in BGEM with the same supplements as above but without triiodothyronine and a final retinoic acid concentration of 50 nM (all-trans retinoic acid; Sigma-Aldrich, UK). Cells were maintained submerged for the first 7 days in culture after which time they were exposed to an apical air interface for the remainder of the culture period. From the first day of establishment of an ALI, HBEC were fed with a DMEM:HAMS F-12 (1:1) media containing 2% Ultroser G (Pall BioSepra, France) with gentamycin (50 μg/mL) and amphotericin B (50 ng/mL). Cells were used for short-circuit current assay between days 14-21 after the establishment of the ALI. At all stages of culture, cells were maintained at 37° C. in 5% CO2 in an air incubator.
Short-Circuit Current (ISC) Measurements
Snapwell inserts were mounted in Costar Vertical Diffusion Chambers (Costar, UK) and were bathed with continuously gassed Ringer solution (5% CO2 in O2; pH 7.4) maintained at 37° C. containing (in mM): 120 NaCl, 25 NaHCO3, 3.3 KH2PO4, 0.8 K2HPO4, 1.2 CaCl2, 1.2 MgCl2 and 10 glucose. The solution osmolarity was always between 280-300 mOsm/kg H2O for all physiological salt solutions used. Cells were voltage clamped to 0 mV (model EVC4000, WPI). Transepithelial resistance (RT) was measured by applying a 2 mV pulse at 30 s intervals and calculating RT by Ohm's law. Data were recorded using a PowerLab workstation (ADlnstruments, UK).
ENaC blocker compounds were added to the apical chamber from a 1000-fold stock solution (prepared in DMSO) to achieve a cumulative concentration response in terms of the inhibition of the basal ISC. At the completion of the concentration response, a supra-maximal concentration of amiloride (10 μM) was added. The concentration of test compound that induced a 50% inhibition of the total amiloride-sensitive ISC (IC50) was calculated using GraphPad Prism v6.05. The results are presented in Table 2, from which it can be seen that the compounds of the present invention have ENaC inhibiting activity.

Row | IC50 | SMILES
1 | 9 nM | CCn1c(CNC(=O)c2nc3cc[nH]c3nc2N)[n+](Cc2ccccc2)c2ccc(OC)cc21 [Example 8, 2-[({3-amino-5H-pyrrolo[2,3-b]pyrazin-2-yl}formamido)methyl]-3-benzyl-1-ethyl-6-methoxy-1H-1,3-benzodiazol-3-ium formate]
2 | 48 nM | CCn1c(CNC(=O)c2nc3cc[nH]c3nc2N)[n+](CC(=O)OC)c2ccc(OC)cc21 [Example 9, 2-[({3-amino-5H-pyrrolo[2,3-b]pyrazin-2-yl}formamido)methyl]-1-ethyl-6-methoxy-3-(2-methoxy-2-oxoethyl)-1H-1,3-benzodiazol-3-ium bromide]
3 | 199 nM | CCn1c(CNC(=O)c2nc3cc[nH]c3nc2N)[n+](CC(=O)O)c2ccc(OC)cc21 [Example 10, 2-[({3-amino-5H-pyrrolo[2,3-b]pyrazin-2-yl}formamido)methyl]-3-(carboxylatomethyl)-1-ethyl-6-methoxy-1H-1,3-benzodiazol-3-ium]
4 | 22 nM | CCn1c(CNC(=O)c2nc3cc[nH]c3nc2N)[n+](CC(N)=O)c2ccc(OC)cc21 [Example 11, 2-[({3-amino-5H-pyrrolo[2,3-b]pyrazin-2-yl}formamido)methyl]-3-(carbamoylmethyl)-1-ethyl-6-methoxy-1H-1,3-benzodiazol-3-ium bromide]
5 | 5 nM | CCn1c(CNC(=O)c2nc3cc[nH]c3nc2N)[n+](CCSC)c2ccc(OC)cc21 [Example 12, 2-[({3-amino-5H-pyrrolo[2,3-b]pyrazin-2-yl}formamido)methyl]-1-ethyl-6-methoxy-3-[2-(methylsulfanyl)ethyl]-1H-1,3-benzodiazol-3-ium iodide]
6 | 4 nM | CCn1c(CNC(=O)c2nc3cc[nH]c3nc2N)[n+](CCO)c2ccc(OC)cc21 [Example 13, 2-[({3-amino-5H-pyrrolo[2,3-b]pyrazin-2-yl}formamido)methyl]-1-ethyl-3-(2-hydroxyethyl)-6-methoxy-1H-1,3-benzodiazol-3-ium]

Further lines, the compound ahead of its results:

Row | SMILES | IC50
7 | CCn1c(CNC(=O)c2nc3cc[nH]c3nc2N)[n+](C)c2ccccc21 [Example 1, 2-[({3-amino-5H-pyrrolo[2,3-b]pyrazin-2-yl}formamido)methyl]-1-ethyl-3-methyl-1H-1,3-benzodiazol-3-ium formate] | 33 nM
8 | CCn1c(CNC(=O)c2nc3cc[nH]c3nc2N)[n+](C)c2ccc(F)cc21 [Example 2, 2-[({3-amino-5H-pyrrolo[2,3-b]pyrazin-2-yl}formamido)methyl]-1-ethyl-6-fluoro-3-methyl-1H-1,3-benzodiazol-3-ium chloride] | 43 nM
9 | CCn1c(CNC(=O)c2nc3cc[nH]c3nc2N)[n+](C)c2ccc(Cl)cc21 [Example 3, 2-[({3-amino-5H-pyrrolo[2,3-b]pyrazin-2-yl}formamido)methyl]-6-chloro-1-ethyl-3-methyl-1H-1,3-benzodiazol-3-ium formate] | 19 nM
10 | CCn1c(CNC(=O)c2nc3cc[nH]c3nc2N)[n+](C)c2ccc(OC)cc21 [Example 4, 2-[({3-amino-5H-pyrrolo[2,3-b]pyrazin-2-yl}formamido)methyl]-1-ethyl-6-methoxy-3-methyl-1H-1,3-benzodiazol-3-ium formate] | 8 nM
11 | CCn1c(CNC(=O)c2nc3cc[nH]c3nc2N)[n+](C)c2ccc(C(F)(F)F)cc21 [Example 5, 2-[({3-amino-5H-pyrrolo[2,3-b]pyrazin-2-yl}formamido)methyl]-1-ethyl-3-methyl-6-(trifluoromethyl)-1H-1,3-benzodiazol-3-ium formate] | 9 nM
12 | CCn1c(CNC(=O)c2nc3cc[nH]c3nc2N)[n+](C)c2ccc(OC(F)(F)F)cc21 [Example 6, 2-[({3-amino-5H-pyrrolo[2,3-b]pyrazin-2-yl}formamido)methyl]-1-ethyl-3-methyl-6-(trifluoromethoxy)-1H-1,3-benzodiazol-3-ium formate] | 5 nM
13 | CCn1c(CNC(=O)c2nc3cc[nH]c3nc2N)[n+](CC)c2ccc(OC)cc21 [Example 7, 2-[({3-amino-5H-pyrrolo[2,3-b]pyrazin-2-yl}formamido)methyl]-1,3-diethyl-6-methoxy-1H-1,3-benzodiazol-3-ium formate] | 3 nM
